Assays:
[1] = tested on: ENR+CD organoids (ISC to Paneth cell differentiation); assay: Primary screen: basal (non-stimulated) lysozyme secretion LYZ.NS, 2.5-D 384-well ENR+CD organoid differentiation; type: cell-based, mouse; details: primary screen; for Z.LYZ.NS: standard z score
Description: (§1) High-throughput screening.

[2] = tested on: ENR+CD organoids (ISC to Paneth cell differentiation); assay: Primary screen: CCh-stimulated lysozyme secretion LYZ.S, 2.5-D 384-well ENR+CD organoid differentiation; type: cell-based, mouse; details: primary screen
Description: as §1

[3] = tested on: ENR+CD organoids; assay: Primary screen: ATP (CellTiter-Glo 3D, CTG) cell number/viability, 2.5-D 384-well ENR+CD organoids; details: primary screen; for Z.CTG: standard z score;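 on all read-outs here: compounds given at plating and again on day 3 over a 6-day differentiation from ENR+CV stem-cell-enriched precursors, ATP measured on day 6, plate median as control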
[4] = dose 0.08 uM, FC vs plate median
[5] = dose 0.40 uM, FC vs plate median
[6] = dose 2.00 uM, FC vs plate median
[7] = dose 10.00 uM, FC vs plate median
[8] = 1st dose row of the treatment (0.08 uM by row order; dose not reprinted)
[9] = 2nd dose row of the treatment (0.40 uM by row order; dose not reprinted)
[10] = 3rd dose row of the treatment (2.00 uM by row order; dose not reprinted)
[11] = 4th dose row of the treatment (10.00 uM by row order; dose not reprinted)

In the case of COc1ccc(-c2nc3ccc(C4=NNC(=O)CC4C)cc3[nH]2)cc1 (centres unmarked) [Pimobendan], the Z.LYZ.NS ([1]; dose 0.08 uM) is reported as 0.328, the Z.LYZ.NS ([1]; dose 0.40 uM) is reported as 0.546 and the Z.LYZ.NS ([1]; dose 2.00 uM) is reported as 1.121. For the same compound, the Z.LYZ.NS ([1]; dose 10.00 uM) was −0.577, the Dose.FC.LYZ.NS [1, 4] was 0.038 log2 fold change and the Dose.FC.LYZ.NS [1, 5] was 0.063 log2 fold change. The Dose.FC.LYZ.NS [1, 6] was 0.129 log2 fold change, the Dose.FC.LYZ.NS [1, 7] was −0.066 log2 fold change and the Dose.FC.LYZ.S [2, 4] was 0.129 log2 fold change. It also gave a Dose.FC.LYZ.S [2, 5] of 0.051 log2 fold change, a Dose.FC.LYZ.S [2, 6] of 0.194 log2 fold change and a Dose.FC.LYZ.S [2, 7] of −0.134 log2 fold change. It also gave a Dose.FC.CTG [3, 4] of −0.022 log2 fold change, a Dose.FC.CTG [3, 5] of 0.193 log2 fold change and a Dose.FC.CTG [3, 6] of 0.206 log2 fold change. It also gave a Dose.FC.CTG [3, 7] of 0.139 log2 fold change.

In the case of CCCC(C)NC(=O)c1ccc(Cl)c(Cl)c1 (centres unmarked) [NSC 405020], the Z.LYZ.NS ([1]; dose 0.08 uM) is reported as 0.071, the Z.LYZ.NS ([1]; dose 0.40 uM) is reported as −0.246 and the Z.LYZ.NS ([1]; dose 2.00 uM) is reported as 0.160. It also gave a Z.LYZ.NS ([1]; dose 10.00 uM) of −0.570, a Dose.FC.LYZ.NS [1, 4] of 0.008 log2 fold change and a Dose.FC.LYZ.NS [1, 5] of −0.028 log2 fold change. It also gave a Dose.FC.LYZ.NS [1, 6] of 0.018 log2 fold change, a Dose.FC.LYZ.NS [1, 7] of −0.065 log2 fold change and a Dose.FC.LYZ.S [2, 4] of 0.014 log2 fold change. The Dose.FC.LYZ.S [2, 5] was 0.093 log2 fold change, the Dose.FC.LYZ.S [2, 6] was 0.002 log2 fold change and the Dose.FC.LYZ.S [2, 7] was −0.061 log2 fold change. The Z.CTG ([3]; dose 0.08 uM) was −0.140, the Z.CTG ([3]; dose 0.40 uM) was −0.170 and the Z.CTG ([3]; dose 2.00 uM) was −0.141. It also gave a Z.CTG ([3]; dose 10.00 uM) of −0.138, a Dose.FC.CTG [3, 4] of −0.059 log2 fold change and a Dose.FC.CTG [3, 5] of −0.071 log2 fold change. The Dose.FC.CTG [3, 6] was −0.059 log2 fold change and the Dose.FC.CTG [3, 7] was −0.058 log2 fold change.

For COc1cc2/c(=N/c3ccc(Br)cc3F)nc[nH]c2cc1OCC1CCN(C)CC1 [Vandetanib (ZD6474)], the Dose.FC.LYZ.NS ([1]; dose 0.08 uM) was −0.068 log2 fold change, the “Z.LYZ.NS (standard z score)” value ([1]; dose 0.08 uM) was −0.594 and the Dose.FC.LYZ.NS ([1]; dose 0.40 uM) was −0.091 log2 fold change. For the same compound, the “Z.LYZ.NS (standard z score)” value ([1]; dose 0.40 uM) was −0.792, the Dose.FC.LYZ.NS ([1]; dose 2.00 uM) was −0.271 log2 fold change and the “Z.LYZ.NS (standard z score)” value ([1]; dose 2.00 uM) was −2.356. The Dose.FC.LYZ.NS ([1]; dose 10.00 uM) was −0.298 log2 fold change, the “Z.LYZ.NS (standard z score)” value ([1]; dose 10.00 uM) was −2.594 and the Dose.FC.LYZ.S ([2]; dose 0.08 uM) was −0.139 log2 fold change. It also gave a Dose.FC.LYZ.S ([2]; dose 0.40 uM) of −0.054 log2 fold change, a Dose.FC.LYZ.S ([2]; dose 2.00 uM) of −0.384 log2 fold change and a Dose.FC.LYZ.S ([2]; dose 10.00 uM) of −0.494 log2 fold change. For the same compound, the Dose.FC.CTG ([3]; dose 0.08 uM) was −0.648 log2 fold change, the “Z.CTG (standard z score)” value ([3]; dose 0.08 uM) was −1.547 and the Dose.FC.CTG ([3]; dose 0.40 uM) was −0.366 log2 fold change. The “Z.CTG (standard z score)” value ([3]; dose 0.40 uM) was −0.874, the Dose.FC.CTG ([3]; dose 2.00 uM) was −0.874 log2 fold change and the “Z.CTG (standard z score)” value ([3]; dose 2.00 uM) was −2.089. The Dose.FC.CTG ([3]; dose 10.00 uM) was −1.206 log2 fold change and the “Z.CTG (standard z score)” value ([3]; dose 10.00 uM) was −2.880.

In the case of CC1(C)CCC(CN2CCN(c3ccc(C(=O)NS(=O)(=O)c4ccc(NCC5CCOCC5)c([N+](=O)[O-])c4)c(Oc4cnc5[nH]ccc5c4)c3)CC2)=C(c2ccc(Cl)cc2)C1 [ABT-199 (GDC-0199)], the “SSMD.LYZ.NS_Rep (strictly standardized mean difference)” value [1, 8] is reported as −0.009, the “SSMD.LYZ.NS_Rep (strictly standardized mean difference)” value [1, 9] is reported as −0.192 and the “SSMD.LYZ.NS_Rep (strictly standardized mean difference)” value [1, 10] is reported as −0.116. For the same compound, the “SSMD.LYZ.NS_Rep (strictly standardized mean difference)” value [1, 11] was −0.810, the Dose.FC.LYZ.NS ([1]; dose 0.08 uM) was −0.002 log2 fold change and the “Z.LYZ.NS (standard z score)” value ([1]; dose 0.08 uM) was −0.013. The Dose.FC.LYZ.NS ([1]; dose 0.40 uM) was −0.029 log2 fold change, the “Z.LYZ.NS (standard z score)” value ([1]; dose 0.40 uM) was −0.251 and the Dose.FC.LYZ.NS ([1]; dose 2.00 uM) was −0.016 log2 fold change. For the same compound, the “Z.LYZ.NS (standard z score)” value ([1]; dose 2.00 uM) was −0.136, the Dose.FC.LYZ.NS ([1]; dose 10.00 uM) was −0.169 log2 fold change and the “Z.LYZ.NS (standard z score)” value ([1]; dose 10.00 uM) was −1.471. The “SSMD.LYZ.S_Rep (strictly standardized mean difference)” value [2, 8] was −0.260, the “Z.LYZ.S (standard z score)” value [2, 8] was −0.285 and the “SSMD.LYZ.S_Rep (strictly standardized mean difference)” value [2, 9] was 0.443. The “Z.LYZ.S (standard z score)” value [2, 9] was 0.494, the “SSMD.LYZ.S_Rep (strictly standardized mean difference)” value [2, 10] was −0.368 and the “Z.LYZ.S (standard z score)” value [2, 10] was −0.404. For the same compound, the “SSMD.LYZ.S_Rep (strictly standardized mean difference)” value [2, 11] was −1.131, the “Z.LYZ.S (standard z score)” value [2, 11] was −1.890 and the Dose.FC.LYZ.S ([2]; dose 0.08 uM) was −0.044 log2 fold change. The Dose.FC.LYZ.S ([2]; dose 0.40 uM) was 0.076 log2 fold change, the Dose.FC.LYZ.S ([2]; dose 2.00 uM) was −0.063 log2 fold change and the Dose.FC.LYZ.S ([2]; dose 10.00 uM) was −0.292 log2 fold change. The “SSMD.CTG.Rep (strictly standardized mean difference)” value [3, 8] was 0.051, the “SSMD.CTG.Rep (strictly standardized mean difference)” value [3, 9] was 0.111 and the “SSMD.CTG.Rep (strictly standardized mean difference)” value [3, 10] was −0.377. The “SSMD.CTG.Rep (strictly standardized mean difference)” value [3, 11] was −1.402, the Dose.FC.CTG ([3]; dose 0.08 uM) was 0.019 log2 fold change and the “Z.CTG (standard z score)” value ([3]; dose 0.08 uM) was 0.045. The Dose.FC.CTG ([3]; dose 0.40 uM) was 0.038 log2 fold change, the “Z.CTG (standard z score)” value ([3]; dose 0.40 uM) was 0.090 and the Dose.FC.CTG ([3]; dose 2.00 uM) was −0.278 log2 fold change. The “Z.CTG (standard z score)” value ([3]; dose 2.00 uM) was −0.665, the Dose.FC.CTG ([3]; dose 10.00 uM) was −0.519 log2 fold change and the “Z.CTG (standard z score)” value ([3]; dose 10.00 uM) was −1.240.

Reference: patent US20220323406A1, “METHODS AND COMPOSITIONS FOR DIFFERENTIATING STEM CELLS” (Massachusetts Institute of Technology, priority 2019, published 2022)
